Each structure is given as a SMILES string. Counter-ions that a name gives are not always drawn.

For the first test, the target named is T1, human recombinant DPP-IV (Homo sapiens, UniProt P27487).
T1 construct: purchased R&D Systems, USA (or produced in-house)
T1 sequence (P27487 whole entry): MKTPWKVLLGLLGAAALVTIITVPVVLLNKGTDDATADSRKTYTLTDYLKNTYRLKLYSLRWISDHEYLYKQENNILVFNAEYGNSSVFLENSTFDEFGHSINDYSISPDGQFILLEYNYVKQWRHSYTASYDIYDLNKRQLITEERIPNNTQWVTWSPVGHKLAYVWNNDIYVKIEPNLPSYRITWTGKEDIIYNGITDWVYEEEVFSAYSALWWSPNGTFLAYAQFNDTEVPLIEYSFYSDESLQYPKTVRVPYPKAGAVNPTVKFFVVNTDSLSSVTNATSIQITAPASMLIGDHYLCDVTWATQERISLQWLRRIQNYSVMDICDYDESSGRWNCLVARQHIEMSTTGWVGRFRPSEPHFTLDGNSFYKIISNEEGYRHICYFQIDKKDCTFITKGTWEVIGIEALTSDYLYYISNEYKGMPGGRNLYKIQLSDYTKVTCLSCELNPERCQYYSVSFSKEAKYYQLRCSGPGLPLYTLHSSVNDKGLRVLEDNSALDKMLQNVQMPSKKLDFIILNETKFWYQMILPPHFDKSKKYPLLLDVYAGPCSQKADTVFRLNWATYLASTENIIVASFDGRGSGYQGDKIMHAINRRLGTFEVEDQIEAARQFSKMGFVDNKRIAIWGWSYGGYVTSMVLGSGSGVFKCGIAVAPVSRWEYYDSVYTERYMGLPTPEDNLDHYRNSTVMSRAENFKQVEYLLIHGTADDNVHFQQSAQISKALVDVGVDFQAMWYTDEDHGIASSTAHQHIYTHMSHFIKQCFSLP
Kind of test: Inhibition of human recombinant DPP-IV (Gly-Pro-AMC hydrolysis, fluorometric). The settings on record: compound 10 nM; relative to vehicle controls. Format: biochemical. How it is done: Inhibition of Human Recombinant DPP-IV
The proteolytic activity of human recombinant DPP-IV was determined by following the hydrolysis of Gly-Pro-7-amino-4-methylcoumarin (Gly-Pro-AMC) and the fluorometric quantitation of the liberated AMC. Assays were routinely carried out in 96-well flat-bottom black microwell plates. The reaction mixture (100 μl) contained 10 ng of human recombinant DPP-IV enzyme (produced in-house or procured from R&D Systems, USA) in the assay buffer (25 mM Tris-HCl, pH 7.4, 140 mM NaCl, 10 mM KCl and 0.1 mg/ml BSA) and 50 μM Gly-Pro-AMC. After incubation of assay plates at 30° C. for 30 min, the hydrolysis of Gly-Pro-AMC was monitored in a fluorescence microplate reader (Molecular Devices SpectraMax M5), with excitation and emission wavelengths set at 360 nm and 460 nm, respectively.
The inhibition of DPP-IV activity by test compounds was routinely performed by preincubating the enzyme with test compound (10 and 100 nM for primary screening and 8 concentrations from 0.1 to 1000 nM for the dose-response study) or vehicle (0.01% DMSO) for 15 min at 30° C., in a total volume of 90 μl. Test compounds were dissolved in DMSO at a concentration of 10 mM and serially diluted further in assay buffer. The enzyme reaction was initiated by the addition of Gly-Pro-AMC, followed by incubation of assay plates for 30 min at 30° C. and the liberated AMC was measured as described above. A known inhibitor of DPP-IV (positive control) was always included in the assay. Test compounds at various concentrations were always evaluated in duplicate, along with substrate blanks, vehicle controls and positive controls.
The results are expressed as percent inhibition of the enzyme activity relative to vehicle controls. Dose-response studies were conducted for those compounds exerting ≧50% inhibition of activity at 10 nM in primary screening. IC50, defined as the inhibitor concentration which caused a 50% decrease of the activity under assay conditions, was computed using GraphPad Prism software, version 5.0.
The DPP-IV inhibition data (expressed either as IC50 in nanomolar or percent inhibition at a particular compound concentration) is presented in Table 1.
As to `N#C[C@@H]1C[C@@H]2C[C@@H]2N1C(=O)[C@@H](N)C1CC2CCC(C1)N2CC1CCCCC1.O=C(O)C(F)(F)F` (stereo partly drawn) [Compound 48, (1S,3S,5S)-2-{(2S)-2-Amino-2-[8-(cyclohexylmethyl)-8-aza-bicyclo[3.2.1]oct-3-yl]-exo-ethanoyl}-2-azabicyclo-[3.1.0]hexane-3-carbonitrile trifluoroacetic acid salt], the “% inhibition at 10 nM” value turned out to be 22% inhibition at 10 nM.

As to `N#C[C@@H]1C[C@@H]2C[C@@H]2N1C(=O)[C@@H](N)C1CC2CCC(C1)N2C(=O)c1ccco1.O=C(O)C(F)(F)F` (stereo partly drawn) [Compound 40, (1S,3S,5S)-2-{(2S)-2-Amino-2-[8-(furan-2-carbonyl)-8-aza-bicyclo[3.2.1]oct-3-yl]-exo-ethanoyl}-2-azabicyclo[3.1.0]hexane-3-carbonitrile trifluoroacetic acid salt], the “% inhibition at 10 nM” value is reported as 44% inhibition at 10 nM.

`N[C@H](C(=O)N1CCC[C@H]1CO)C1CC2CCC(C1)N2C(=O)c1ccc2c(c1)OCO2.O=C(O)C(F)(F)F` (stereo partly drawn) [Compound 14, (2S)-{(2S)-1-[(2S)-2-Amino-2-(8-(benzo[1,3]dioxole-5-carbonyl)-8-aza-bicyclo[3.2.1]-oct-3-yl)-exo-acetyl]-pyrrolidin-2-yl}methanol trifluoroacetic acid salt]: the “% inhibition at 10 nM” value stood at 12% inhibition at 10 nM.

On to `N#C[C@@H]1C[C@@H]2C[C@@H]2N1C(=O)[C@@H](N)C1CC2CCC(C1)N2C(=O)C1CCCCC1.O=C(O)C(F)(F)F` (stereo partly drawn) [Compound 58, (1S,3S,5S)-2-{(2S)-2-Amino-2-[8-(cyclohexane-carbonyl)-8-aza-bicyclo[3.2.1]oct-3-yl]-exo-ethanoyl}-2-azabicyclo[3.1.0]hexane-3-carbonitrile trifluoroacetic acid salt], for which the “% inhibition at 10 nM” value was determined as 31% inhibition at 10 nM.

Consider `N#C[C@H]1C[C@H]2C[C@H]2N1C(=O)[C@@H](N)C1CC2CCC(C1)N2C(=O)c1cnccn1.O=C(O)C(F)(F)F` (stereo partly drawn) [Compound 37, (1R,3R,5R)-2-{(2S)-2-Amino-2-[8-(pyrazine-2-carbonyl)-8-aza-bicyclo[3.2.1]oct-3-yl]-exo-ethanoyl}-2-azabicyclo[3.1.0]hexane-3-carbonitrile trifluoroacetic acid salt], for which the “% inhibition at 10 nM” value is on record as 7% inhibition at 10 nM.

On to `N#C[C@@H]1C[C@@H]2C[C@@H]2N1C(=O)[C@@H](N)C1CC2CCC(C1)N2Cc1ccncc1.O=C(O)C(F)(F)F` (stereo partly drawn) [Compound 55, (1S,3S,5S)-2-{(2S)-2-Amino-2-[8-(pyridin-4-yl-methyl)-8-aza-bicyclo[3.2.1]oct-3-yl]-exo-ethanoyl}-2-azabicyclo[3.1.0]hexane-3-carbonitrile trifluoroacetic acid salt], for which the “% inhibition at 10 nM” value came to 45% inhibition at 10 nM.

For the compound `N#C[C@H]1C[C@H]2C[C@H]2N1C(=O)[C@@H](N)C1CC2CCC(C1)N2C(=O)c1ccnc(F)c1.O=C(O)C(F)(F)F` (stereo partly drawn) [Compound 29, (1R,3R,5R)-2-{(2S)-2-Amino-2-[8-(2-fluoropyridine-4-carbonyl)-8-aza-bicyclo[3.2.1]oct-3-yl]-exo-ethanoyl}-2-azabicyclo[3.1.0]hexane-3-carbonitrile trifluoroacetic acid salt], the “% inhibition at 10 nM” value is 0% inhibition at 10 nM.

Consider `N#C[C@@H]1C[C@@H]2C[C@@H]2N1C(=O)[C@@H](N)C1CC2CCC(C1)N2C1CCCCC1.O=C(O)C(F)(F)F` (stereo partly drawn) [Compound 60, (1S,3S,5S)-2-{(2S)-2-Amino-2-(8-cyclohexyl-8-aza-bicyclo[3.2.1]oct-3-yl)-exo-ethanoyl}-2-azabicyclo[3.1.0]hexane-3-carbonitrile trifluoroacetic acid salt], for which the “% inhibition at 10 nM” value was found to be 10% inhibition at 10 nM.

Staying with this test, now noted: compound 10 nM; relative to vehicle controls; read-out: % inhibition at 10 nM.
For the compound `N#C[C@H]1CC[C@@H](C(=O)OCc2ccccc2)N1C(=O)[C@@H](N)C1CC2CCC(C1)N2C(=O)c1ccc(C(F)(F)F)cc1` (stereo partly drawn) [Compound 18, Benzyl-(2S,5R)-1-{(2S)-2-amino-2-[8-(4-trifluoromethyl-benzoyl)-8-aza-bicyclo[3.2.1]-oct-3-yl]-exo-ethanoyl}-5-cyano pyrrolidin-2-carboxylate trifluoroacetic acid salt], the inhibition at 0.01 µM worked out at 1.11%.

The test is the same for the next values; noted with them: human recombinant DPP-IV, 50 μM Gly-Pro-AMC, 30 min at 30° C.
On to `N#C[C@@H]1CCCN1C(=O)[C@@H](N)C1CC2CCC(C1)N2Cc1cc(F)c(F)cc1F` (stereo partly drawn) [Compound 9, (2S)-1-{(2S)-2-Amino-2-[8-(2,4,5-trifluorobenzyl)-8-aza-bicyclo[3.2.1]oct-3-yl]-exo-ethanoyl}-pyrrolidin-2-carbonitrile trifluoroacetic acid salt], for which the IC50 is 3.13 nM.

Regarding `N#C[C@@H]1C[C@@H]2C[C@@H]2N1C(=O)[C@@H](N)C1CC2CCC(C1)N2C(=O)c1ccc2c(c1)OCO2` (stereo partly drawn) [Compound 44, (1S,3S,5S)-2-{(2S)-2-Amino-2-[8-(benzo[1,3]-dioxole-5-carbonyl)-8-aza-bicyclo[3.2.1]oct-3-yl]-exo-ethanoyl}-2-azabicyclo[3.1.0]-hexane-3-carbonitrile trifluoroacetic acid salt], the IC50 worked out at 2.4 nM.

As to `C#C[C@H]1CC[C@@H](C#N)N1C(=O)[C@@H](N)C1CC2CCC(C1)N2C(=O)c1ccc(C(F)(F)F)cc1` (stereo partly drawn) [Compound 63, (2S,5R)-1-{(2S)-2-Amino-2-[8-(4-trifluoromethyl-benzoyl)-8-aza-bicyclo[3.2.1]oct-3-yl]-exo-ethanoyl}-5-ethynyl-pyrrolidin-2-carbonitrile trifluoro acetic acid salt], the IC50 is 15.5 nM.

Turning to `N[C@H](C(=O)N1CCSC1)C1CC2CCC(C1)N2C(=O)c1ccc(C(F)(F)F)cc1` (stereo partly drawn) [Compound 21, 3-{(2S)-2-Amino-2-[8-(4-trifluoromethyl-benzoyl)-8-aza-bicyclo[3.2.1]-oct-3-yl]-exo-ethanoyl}-1,3-thiazolidin trifluoroacetic acid salt], the IC50 was 17.9 nM.

As to `N#C[C@@H]1C[C@@H]2C[C@@H]2N1C(=O)[C@@H](N)C1CC2CCC(C1)N2C(=O)c1ccc(C(F)(F)F)cc1` (stereo partly drawn) [Compound 26, (1S,3S,5S)-2-{(2S)-2-Amino-2-[8-(4-trifluoromethylbenzoyl)-8-aza-bicyclo[3.2.1]oct-3-yl]-exo-ethanoyl}-2-azabicyclo[3.1.0]hexane-3-carbonitrile trifluoroacetic acid salt], the IC50 came to 8.9 nM.

`N#C[C@@H]1C[C@@H]2C[C@@H]2N1C(=O)[C@@H](N)C1CC2CCC(C1)N2C(=O)c1cc(F)c(F)cc1F` (stereo partly drawn) [Compound 23, (1S,3S,5S)-2-{(2S)-2-Amino-2-[8-(2,4,5-trifluorobenzoyl)-8-aza-bicyclo[3.2.1]oct-3-yl]-exo-ethanoyl}-2-azabicyclo[3.1.0]hexane-3-carbonitrile trifluoroacetic acid salt]: the concentration for half-maximal inhibition (IC50) is 9.75 nM.

With `CC(=O)N1CCC(C(=O)N2C3CCC2CC([C@H](N)C(=O)N2[C@H](C#N)C[C@@H]4C[C@@H]42)C3)CC1` (stereo partly drawn) [Compound 69, (1S,3S,5S)-2-{(2S)-2-Amino-2-[8-(1-acetyl-piperidin-4-carbonyl)-8-aza-bicyclo[3.2.1]oct-3-yl]-exo-ethanoyl}-2-azabicyclo[3.1.0]hexane-3-carbonitrile trifluoroacetic acid salt], the IC50 amounted to 13 nM.

Take `N#C[C@@H]1C[C@@H]2C[C@@H]2N1C(=O)[C@@H](N)C1CC2CCC(C1)N2C(=O)c1cccnc1` (stereo partly drawn) [Compound 33, (1S,3S,5S)-2-{(2S)-2-Amino-2-[8-(pyridine-3-carbonyl)-8-aza-bicyclo[3.2.1]oct-3-yl]-exo-ethanoyl}-2-azabicyclo[3.1.0]hexane-3-carbonitrile di trifluoroacetic acid salt]: the IC50 is 9.43 nM.

Turning to `N#C[C@@H]1C[C@H](F)CN1C(=O)[C@@H](N)C1CC2CCC(C1)N2Cc1cc(F)c(F)cc1F` (stereo partly drawn) [Compound 19, (2S,4S)-1-{(2S)-2-Amino-2-[8-(2,4,5-trifluorobenzyl)-8-aza-bicyclo[3.2.1]oct-3-yl]-exo-ethanoyl}-4-fluoro-pyrrolidin-2-carbonitrile trifluoroacetic acid salt], the IC50 turned out to be 6.25 nM.

Regarding `C#C[C@H]1CC[C@@H](C#N)N1C(=O)[C@@H](N)C1CC2CCC(C1)N2C(=O)c1ccncc1F` (stereo partly drawn) [Compound 65, (2S,5R)-1-{(2S)-2-Amino-2-[8-(3-fluoropyridin-4-carbonyl)-8-aza-bicyclo[3.2.1]oct-3-yl]-exo-ethanoyl}-5-ethynyl-pyrrolidin-2-carbonitrile trifluoroacetic acid salt], the IC50 amounted to 7.1 nM.

Still in this test, the particulars now being: read-out: % inhibition at 10 nM.
Regarding `N[C@H](C(=O)N1CC(F)C1)C1CC2CCC(C1)N2C(=O)c1ccncc1F` (stereo partly drawn) [Compound 62, {(2S)-2-Amino-2-[8-(3-fluoropyridine-4-carbonyl)-8-aza-bicyclo[3.2.1]-oct-3-yl]-exo-ethanoyl}-3-fluoroazetidine trifluoroacetic acid salt], the inhibition at 0.01 µM was 12%.

The inhibition is how much of the control response was suppressed. In general, IC50 refers to the point on the concentration scale where inhibition reaches its midpoint.
